Reference: patent US8835466B2, “Synthesis and uses of pyroglutamic acid derivatives” (Prodimed, S.A., priority 2006, dated 2014)

Assays:
[1] = tested on: Renca cells (renal cell carcinoma); test: Effect of isomers on in vivo tumour growth in mice challenged with Renca cells (Example 7); set-up: species or system Balb/c mice
From the text: This assay was made in order to check the effect of each stereoisomer on in vivo tumour growth in mice challenged with Renca cells. Their effect was compared with placebo. The stereoisomers assayed were:
Renca is a renal cell carcinoma originated in Balb/c mouse strain, and therefore syngeneic in mice with Balb/c genetic background [Melder R J et al., Cancer Immunol. Immunother., 2005, 54:535-547; Felluga B et al., 1969, J. Natl. Cancer Inst. 43:319-333]. Renca is considered a moderate immunogenic tumour and used as suitable model for testing immunointervention approaches [Salup R R, et al., 1992, The Journal of Urology, 147:1120-1123].
(§1) Renca cells (CLS, Eppelheim, Germany) were maintained in vitro by serial passages every 3-4 days. Cultures were performed with RPMI medium medium (RPMI, 10% foetal calf serum, 2 mM L-glutamine, non essential amino acids, 1 mM sodium pyruvate, 20 mM HEPES, 80 μg/mL gentamycin; all of them were purchased from Sigma, St. Louis, Mo., USA) by seeding 5×10^6 cells onto 75 cm^2 culture flasks. Tumour cells collected from 48 hour cultures upon trypsinization (Sigma, St. Louis, Mo., USA) were used as source of Renca cells for the studies described below.
Each isomer was tested at the dose levels of 260 ng administered on days 6, 7 and 14 after tumour inoculation.
The treatments were given by intraperitoneal route (i.p.). The volume inoculated was 0.2 mL/animal. This route was chosen because it is the one described in the original method [Pérez S, et al., 2003, Clinical Cancer Research. 9:5776-5785].
Tumours were established by subcutaneous inoculation in the right hind flank. Mice (Balb/c) were inoculated with 0.2 mL containing 10^5 viable Renca cells. The day of subcutaneous inoculation will be considered Day 0 of the test.
(§2) Mice were observed daily and the tumour size recorded twice a week. This was carried out by measuring two perpendicular diameters (L/W) with a calliper. These measures were used to obtain both tumour surface and volume: Tumour surface=L×W(mm^2) Tumour volume=L×W^2×½(mm^3)
(§3) Results were expressed as single values and/or as the mean±SD or median from each experimental group.
(§4) A case-control study was performed with treated and control mice in order to determine whether differences between isomers and administration of placebo were present. […] The U-test of Mann Withney was chosen for being one of the better known non-parametrical tests, anyway, results for this test are equivalent both to those of Wilcoxon's sum of ranges and Kruskal-Wallis two-groups test.
Due to the high dispersion of data, outlayers (animals beyond percentile 25 or above percentile 75 for tumour surface at day 25) were excluded of the study.

[2] = tested on: Ehrlich tumour cells (murine mammary adenocarcinoma); test: Effect of isomers and BLAS on in vivo tumour growth, Ehrlich tumours (Example 9); set-up: species or system Balb/c mice; conditions: for Tumour surface, overall values (Mean) / Tumour surface, overall values (Median) / Tumour volume, overall values (Mean) / Tumour volume, overall values (Median): 260 ng/mouse i.p. days 6, 7 and 14
From the text: This assay was made in order to compare the effect of each stereoisomer on in vivo tumour growth in mice with the effect of the mixture of all of them challenged with Ehlrich tumours. The same products, equipment, reagents, doses, vehicle and route of administration as in example 8 were used.
Mice were inoculated with Ehrlich tumour cells. It was described as a murine mammary adenocarcinoma. Ehrlich tumour is a murine mammary carcinoma originally raised in an outbred mouse, and therefore it belongs to the so-called non-specific tumours (Subiza J L, Viñuela J E, Rodriguez R, Gil J, Figueredo M A, de la Concha. E G. Development of splenic natural suppressor (NS) cells in Ehrlich tumor bearing mice. Int J Cancer, 44:307 315; 1989). It may grow across histocompatibility barriers and therefore is not mouse strain specific (Carry P J, Prescott D M, Ogilvie G K. Resistance to Ehrlich ascites tumor in a strain of dystrophic mice. Cancer Res., 39:2139-2140; 1979).
as §1, with “Ehrlich” for “Renca”, “cells” for “cells (CLS, Eppelheim, Germany)”, “aminoacids,” for “amino acids,”, “cultures” for “cultures upon trypsinization (Sigma, St. Louis, Mo., USA)”, “of” for “of Renca”
Tumours were established by subcutaneous inoculation in the right hind flank. Mice (Balb/c) were inoculated with 0.2 mL containing 2×10^5 viable Ehrlich cells. The day of subcutaneous inoculation will be considered Day 0 of the test.
as §2, §3
as §4, with “BLAS or each diferent stereoisomer” for “isomers”

[3] = day 0 after tumour inoculation, 260 ng/mouse i.p. days 6, 7, 14
[4] = day 11 after tumour inoculation, 260 ng/mouse i.p. days 6, 7, 14
[5] = day 14 after tumour inoculation, 260 ng/mouse i.p. days 6, 7, 14
[6] = day 13 after tumour inoculation
[7] = day 16 after tumour inoculation
[8] = day 20 after tumour inoculation
[9] = day 23 after tumour inoculation
[10] = day 29 after tumour inoculation
[11] = day 31 after tumour inoculation
[12] = day 35 after tumour inoculation
[13] = day 38 after tumour inoculation

Compound: Br.N[C@]1(C[n+]2ccccc2)C[C@@H](C(=O)O)NC1=O.[Br-] (single isomer, unassigned; isomer 3) [isomer 3, 3S,5S-1-(3-Amino-5-carboxy-2-oxopyrrolidin-3-ylmethyl)pyridinium bromide hidrobromide]
- Inhibition of the in vivo growth of the renal cell carcinoma (Renca), in words ([1]; 260 ng i.p. days 6, 7, 14): inhibit the in vivo growth
- Tumour surface, overall values (Mean) [1, 3]: 0 mm^2
- Tumour surface, overall values (Median) [1, 3]: 0 mm^2
- Tumour volume, overall values (Mean) [1, 3]: 0 mm^3
- Tumour volume, overall values (Median) [1, 3]: 0 mm^3
- Tumour surface, overall values (Mean) [1, 4]: 0.3 mm^2
- Tumour surface, overall values (Median) [1, 4]: 0 mm^2
- Tumour volume, overall values (Median) [1, 4]: 0 mm^3
- Tumour surface, overall values (Median) [1, 5]: 4 mm^2
- Tumour volume, overall values (Median) [1, 5]: 4 mm^3
- Differences in Renca tumour growth rate vs. placebo, statistical significance p (Mann-Whitney U test) ([1]; either in surface or volume, days 18th and 25th of tumour development): < 0.05
- Inhibition of the in vivo growth of Ehrlich tumour cells, in words ([2]; 260 ng i.p. days 6, 7 and 14): inhibit the in vivo growth
- Inhibitory effect on Ehrlich tumour growth compared among treatments, in words ([2]; 260 ng i.p. days 6, 7 and 14): highest inhibitory effect
- Tumour surface, overall values (Mean) ([2]; day 0 after tumour inoculation): 0 mm^2
- Tumour surface, overall values (Median) ([2]; day 0 after tumour inoculation): 0 mm^2
- Tumour volume, overall values (Mean) ([2]; day 0 after tumour inoculation): 0 mm^3
- Tumour volume, overall values (Median) ([2]; day 0 after tumour inoculation): 0 mm^3
- Tumour surface, overall values (Mean) ([2]; day 8 after tumour inoculation): 3.62 mm^2
- Tumour surface, overall values (Median) ([2]; day 8 after tumour inoculation): 0 mm^2
- Tumour volume, overall values (Mean) ([2]; day 8 after tumour inoculation): 6 mm^3
- Tumour volume, overall values (Median) ([2]; day 8 after tumour inoculation): 0 mm^3
- Tumour surface, overall values (Mean) [2, 6]: 10.94 mm^2
- Tumour surface, overall values (Median) [2, 6]: 9 mm^2
- Tumour volume, overall values (Mean) [2, 6]: 23.53 mm^3
- Tumour volume, overall values (Median) [2, 6]: 13.5 mm^3
- Tumour surface, overall values (Mean) [2, 7]: 16.5 mm^2
- Tumour surface, overall values (Median) [2, 7]: 16 mm^2
- Tumour volume, overall values (Mean) [2, 7]: 37.12 mm^3
- Tumour volume, overall values (Median) [2, 7]: 32 mm^3
- Tumour surface, overall values (Mean) [2, 8]: 24.12 mm^2
- Tumour surface, overall values (Median) [2, 8]: 20 mm^2
- Tumour volume, overall values (Mean) [2, 8]: 65.12 mm^3
- Tumour volume, overall values (Median) [2, 8]: 40 mm^3
- Tumour surface, overall values (Mean) [2, 9]: 32.25 mm^2
- Tumour surface, overall values (Median) [2, 9]: 25 mm^2
- Tumour volume, overall values (Mean) [2, 9]: 100.44 mm^3
- Tumour volume, overall values (Median) [2, 9]: 62.5 mm^3
- Tumour surface, overall values (Mean) [2, 10]: 42.94 mm^2
- Tumour surface, overall values (Median) [2, 10]: 27.5 mm^2
- Tumour volume, overall values (Mean) [2, 10]: 156.34 mm^3
- Tumour volume, overall values (Median) [2, 10]: 68.75 mm^3
- Tumour surface, overall values (Mean) [2, 11]: 53.37 mm^2
- Tumour surface, overall values (Median) [2, 11]: 36 mm^2
- Tumour volume, overall values (Mean) [2, 11]: 213.31 mm^3
- Tumour volume, overall values (Median) [2, 11]: 100.5 mm^3
- Tumour surface, overall values (Mean) [2, 12]: 66 mm^2
- Tumour surface, overall values (Median) [2, 12]: 43 mm^2
- Tumour volume, overall values (Mean) [2, 12]: 293.87 mm^3
- Tumour volume, overall values (Median) [2, 12]: 135.5 mm^3
- Tumour surface, overall values (Mean) [2, 13]: 79.37 mm^2
- Tumour surface, overall values (Median) [2, 13]: 49.5 mm^2
- Tumour volume, overall values (Mean) [2, 13]: 387.69 mm^3
- Tumour volume, overall values (Median) [2, 13]: 164.25 mm^3
- Differences in Ehrlich tumour growth rate vs. placebo, statistical significance p (Mann-Whitney U test) ([2]; either in surface or volume, all days scored after the day 8th): < 0.05
- Differences in Ehrlich tumour growth rate BLAS vs. isomer 3, statistical significance p (Mann-Whitney U test) ([2]; either in surface or volume, days 13th, 16th, 20th and 23th): < 0.05
